Laboratory results: paper PMC4660213, “Identification and characterization of multiple rubisco activases in chemoautotrophic bacteria” (Nature Communications, 2015)

Tests used:
Format in all cases: biochemical
AfLS = biological target: T1, AfLS (Acidithiobacillus ferrooxidans, UniProt B7JA24); experiment: spectrophotometric coupled rubisco assay of ECMC complex; conditions: activated enzyme (ECM) preincubated with fourfold excess of carboxypentitol bisphosphate (1:1 CABP and carboxyribitol isomer); pH 8.0, 25 °C, 20 mM NaHCO3, Mg2+; active site
T1 construct: gene cbbL2; cbbLS in pET30b, E. coli BL21, ion exchange and gel filtration, L8S8 hexadecamer, predicted 530 kDa; with Ribulose bisphosphate carboxylase small subunit

AfM [1] = biological target: T2, AfM (Acidithiobacillus ferrooxidans, UniProt B7J5E3); experiment: as above; conditions: activated enzyme (ECM) preincubated with fourfold excess of carboxypentitol bisphosphate (1:1 CABP and carboxyribitol isomer); pH 8.0, 25 °C, 20 mM NaHCO3, Mg2+; active site but 5 mM NaHCO3
T2 construct: gene cbbL2; His6-ubiquitin fusion cleaved to native N terminus, E. coli BL21 (DE3), hexamer (L6), 313 kDa measured

Q2O2 [2] = biological target: T3, Q2O2 (Acidithiobacillus ferrooxidans, UniProt B7J5E4, W83L); experiment: coupled ATPase assay (NADH oxidation); conditions: 25 °C; basal, no rubisco
T3 construct: gene cbbQ-2; co-expressed His6-ubiquitin fusions cleaved, E. coli, CbbQ6CbbO1 hetero-oligomer, 285 kDa measured

AfQ2 = biological target: T4, AfQ2 (Acidithiobacillus ferrooxidans, UniProt B7J5E4); experiment: coupled ATPase assay (NADH oxidation); conditions: 25 °C; basal, no rubisco
T4 construct: gene cbbQ-2; His6-ubiquitin fusion cleaved to native N terminus, E. coli, homohexamer, 173 kDa measured

Q2O2 [3] = biological target: T5, Q2O2 (Acidithiobacillus ferrooxidans, UniProt B7J5E4, W83F); experiment: coupled ATPase assay (NADH oxidation); conditions: 25 °C; basal, no rubisco
T5 construct: gene cbbQ-2; co-expressed His6-ubiquitin fusions cleaved, E. coli, CbbQ6CbbO1 hetero-oligomer, 285 kDa measured

AfM [4] = biological target: T2, AfM; experiment: spectrophotometric coupled rubisco assay; conditions: pH 8.0, 25 °C, 1 mM RuBP, 5 mM NaHCO3, 5 mM MgCl2; substrate of ECM, also inhibits the apoenzyme (loose ER complex)

T2 sequence (B7J5E3 entry or part of it): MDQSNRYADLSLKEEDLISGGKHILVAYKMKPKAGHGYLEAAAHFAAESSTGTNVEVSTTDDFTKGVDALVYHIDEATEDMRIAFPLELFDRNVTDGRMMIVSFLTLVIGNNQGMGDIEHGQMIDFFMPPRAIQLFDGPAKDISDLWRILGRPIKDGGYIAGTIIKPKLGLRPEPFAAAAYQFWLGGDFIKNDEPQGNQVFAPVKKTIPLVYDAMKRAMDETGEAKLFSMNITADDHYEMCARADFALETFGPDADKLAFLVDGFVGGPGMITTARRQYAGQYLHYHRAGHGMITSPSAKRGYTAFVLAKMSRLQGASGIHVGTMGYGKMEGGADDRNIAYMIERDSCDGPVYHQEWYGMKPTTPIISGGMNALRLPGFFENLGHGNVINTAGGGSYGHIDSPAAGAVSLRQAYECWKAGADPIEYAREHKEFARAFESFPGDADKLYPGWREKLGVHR
T4 sequence (B7J5E4 entry or part of it): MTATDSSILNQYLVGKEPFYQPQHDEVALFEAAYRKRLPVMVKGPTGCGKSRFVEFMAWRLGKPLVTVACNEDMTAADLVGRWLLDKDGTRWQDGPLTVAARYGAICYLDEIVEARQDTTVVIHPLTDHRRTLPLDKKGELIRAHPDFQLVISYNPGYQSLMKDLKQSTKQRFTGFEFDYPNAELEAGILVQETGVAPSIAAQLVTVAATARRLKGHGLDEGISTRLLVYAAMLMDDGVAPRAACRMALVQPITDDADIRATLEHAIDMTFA
T3 sequence (B7J5E4 entry or part of it W83L): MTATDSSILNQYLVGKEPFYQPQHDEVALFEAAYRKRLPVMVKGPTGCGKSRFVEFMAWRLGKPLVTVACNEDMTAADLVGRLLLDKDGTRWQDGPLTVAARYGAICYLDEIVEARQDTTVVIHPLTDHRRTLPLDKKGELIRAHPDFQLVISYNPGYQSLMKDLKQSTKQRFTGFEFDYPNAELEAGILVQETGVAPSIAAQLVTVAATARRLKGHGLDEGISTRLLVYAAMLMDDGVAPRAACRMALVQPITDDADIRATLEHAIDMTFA
T3 sequence (B7J5E5 entry or part of it, stated change not applied, further chain): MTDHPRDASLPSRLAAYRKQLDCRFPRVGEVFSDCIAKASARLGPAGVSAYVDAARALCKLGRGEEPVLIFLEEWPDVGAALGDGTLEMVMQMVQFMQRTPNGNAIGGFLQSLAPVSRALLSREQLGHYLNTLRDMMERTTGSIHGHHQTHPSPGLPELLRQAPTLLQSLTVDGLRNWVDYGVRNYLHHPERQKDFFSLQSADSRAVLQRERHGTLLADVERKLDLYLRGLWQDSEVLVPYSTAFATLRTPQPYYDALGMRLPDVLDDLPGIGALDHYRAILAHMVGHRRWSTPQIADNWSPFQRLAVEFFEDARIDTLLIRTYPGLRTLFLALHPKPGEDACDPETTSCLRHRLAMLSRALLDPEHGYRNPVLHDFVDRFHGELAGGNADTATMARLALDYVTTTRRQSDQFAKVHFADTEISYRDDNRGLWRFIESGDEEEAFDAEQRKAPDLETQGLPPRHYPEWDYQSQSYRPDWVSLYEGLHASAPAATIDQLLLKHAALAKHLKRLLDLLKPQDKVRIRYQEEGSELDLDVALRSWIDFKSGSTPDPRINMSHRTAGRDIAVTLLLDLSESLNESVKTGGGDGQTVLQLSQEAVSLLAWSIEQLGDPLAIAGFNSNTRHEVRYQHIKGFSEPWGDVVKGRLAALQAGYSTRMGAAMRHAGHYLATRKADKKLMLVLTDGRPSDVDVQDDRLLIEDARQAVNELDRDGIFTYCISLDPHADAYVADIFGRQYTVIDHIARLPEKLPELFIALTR
T1 sequence (B7JA24 whole entry): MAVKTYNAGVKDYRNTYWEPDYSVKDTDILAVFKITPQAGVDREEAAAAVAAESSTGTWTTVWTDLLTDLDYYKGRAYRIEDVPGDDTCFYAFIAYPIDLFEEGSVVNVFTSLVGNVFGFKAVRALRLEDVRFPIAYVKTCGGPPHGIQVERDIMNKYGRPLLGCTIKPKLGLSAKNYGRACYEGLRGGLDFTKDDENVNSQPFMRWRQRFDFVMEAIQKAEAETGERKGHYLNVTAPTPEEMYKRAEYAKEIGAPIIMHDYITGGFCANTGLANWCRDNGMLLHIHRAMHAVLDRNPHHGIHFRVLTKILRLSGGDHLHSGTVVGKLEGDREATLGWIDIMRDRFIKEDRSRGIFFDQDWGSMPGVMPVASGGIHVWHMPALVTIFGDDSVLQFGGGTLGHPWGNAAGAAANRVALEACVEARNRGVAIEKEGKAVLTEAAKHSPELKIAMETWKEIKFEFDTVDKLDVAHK
T1 sequence (B7JA25 1-118 partner): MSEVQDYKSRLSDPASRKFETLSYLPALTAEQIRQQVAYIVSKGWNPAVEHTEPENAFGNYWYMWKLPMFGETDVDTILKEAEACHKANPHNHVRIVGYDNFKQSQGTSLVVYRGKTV
T5 sequence (B7J5E4 entry or part of it W83F): as the sequence (B7J5E4 entry or part of it W83L) above, with L83F counted along it
T5 sequence (B7J5E5 entry or part of it, stated change not applied, further chain): as the sequence (B7J5E5 entry or part of it, stated change not applied, further chain) above

## O=C(O)[C@@](O)(COP(=O)(O)O)[C@H](O)[C@H](O)COP(=O)(O)O (mixture of isomers) [CABP, carboxyarabinitol-1,5-bisphosphate]
AfLS
  spectrophotometric coupled rubisco assay of ECMC complex: the form I (AfLS) ER and ECMC complexes were inactive
AfM [1]
  spectrophotometric coupled rubisco assay of ECMC complex: AfM bound to the transition state analogue CABP (ECMC) formed stable and inactive complexes

## Nc1ncnc2c1ncn2[C@@H]1O[C@H](COP(=O)(O)OP(=O)(O)OP(=O)(O)O)[C@@H](O)[C@H]1O [ATP]
Q2O2 [2]
  coupled ATPase assay (NADH oxidation): The W83L and W83F mutants displayed three and twofold increased basal ATPase activities
AfQ2
  coupled ATPase assay (NADH oxidation): Both AfQ2 and Q2O2ΔC444 displayed a low ATPase activity
Q2O2 [3]
  coupled ATPase assay (NADH oxidation): The W83L and W83F mutants displayed three and twofold increased basal ATPase activities

## O=C(COP(=O)(O)O)[C@H](O)[C@H](O)COP(=O)(O)O [RuBP, ribulose-1,5-bisphosphate]
AfM [4]
  spectrophotometric coupled rubisco assay: the activities of both AfM ECM and ER rapidly converged to a low rate
